Test system: pig model of obstructive sleep apnea (OSA)
Assay: pig model of obstructive sleep apnea (OSA): collapsibility of the upper respiratory tract under negative pressure
Type: in vivo, German Landrace pigs
From the text: The therapeutic potential of the combination of a TASK1/3 channel blocker with a muscarinic receptor antagonist according to the present invention in sleep apnea can be assessed preclinically in a pig model of obstructive sleep apnea (OSA).
Using negative pressure, it is possible to induce collapse and thus obstruction of the upper respiratory tract in anaesthetized, spontaneously breathing pigs (Wirth K. J. et al., Sleep 36(5) (2013) pp. 699-708).
German Landrace pigs are used for the model. The pigs are anaesthetized and tracheotomized. Two tracheal cannulas are inserted into the trachea, one into the rostral part and the other into the caudal part of the trachea.
Using a connection piece, the rostral cannula is connected to a tube to the negative pressure device and to the distal tracheal cannula. The distal tracheal cannula is additionally connected to a tube with an open end to atmosphere via a connection piece that served for free tracheal breathing, circumventing the upper airway. By appropriate opening and clamping of those tubes breathing can be switched from nasal breathing to breathing through the caudal tracheal cannula, circumventing the upper airway, and the (isolated) upper airway can be connected to the negative pressure device, causing airflow in the inspiratory direction.
At certain points in time, the collapsibility of the upper respiratory tract is tested by having the pig breathe via the caudal cannula and applying negative pressures of −50, −100 and −150 cm water head (cm H2O) to the upper respiratory tract. This causes the upper respiratory tract to collapse, which manifests itself in an interruption of the airflow and a pressure drop in the tube system. This test is conducted prior to the administration of the test substance and at certain intervals after the administration of the test substance. An appropriately effective test substance can prevent this collapse of the respiratory tract in the inspiratory phase.

[1] = oxybutynin i.v. bolus 1 mg/kg then i.v. infusion 0.275 mg/kg/h for four hours, given at 0 min, time 0 min
[2] = R-oxybutynin i.v. bolus 1 mg/kg then i.v. infusion 0.275 mg/kg/h for four hours, given at 0 min, time 0 min
[3] = R-oxybutynin i.v. bolus 1 mg/kg then i.v. infusion 0.275 mg/kg/h for four hours, given at 0 min, time 10 min
[4] = R-oxybutynin i.v. bolus 1 mg/kg then i.v. infusion 0.275 mg/kg/h for four hours, given at 0 min, time 30 min
[5] = R-oxybutynin i.v. bolus 1 mg/kg then i.v. infusion 0.275 mg/kg/h for four hours, given at 0 min, time 60 min
[6] = R-oxybutynin i.v. bolus 1 mg/kg then i.v. infusion 0.275 mg/kg/h for four hours, given at 0 min, time 120 min
[7] = R-oxybutynin i.v. bolus 1 mg/kg then i.v. infusion 0.275 mg/kg/h for four hours, given at 0 min, time 180 min
[8] = R-oxybutynin i.v. bolus 1 mg/kg then i.v. infusion 0.275 mg/kg/h for four hours, given at 0 min, time 240 min
[9] = R-oxybutynin i.v. bolus 1 mg/kg then i.v. infusion 0.275 mg/kg/h for four hours, given at 0 min, time 300 min
[10] = combination experiment: R-oxybutynin i.v. bolus 1 mg/kg then infusion 0.275 mg/kg/h for four hours at 0 min, nasal TASK1/3 channel blocker only given at 120 min, time 0 min
[11] = combination experiment: R-oxybutynin i.v. bolus 1 mg/kg then infusion 0.275 mg/kg/h for four hours at 0 min, nasal TASK1/3 channel blocker only given at 120 min, time 10 min
[12] = combination experiment: R-oxybutynin i.v. bolus 1 mg/kg then infusion 0.275 mg/kg/h for four hours at 0 min, nasal TASK1/3 channel blocker only given at 120 min, time 30 min
[13] = combination experiment: R-oxybutynin i.v. bolus 1 mg/kg then infusion 0.275 mg/kg/h for four hours at 0 min, nasal TASK1/3 channel blocker only given at 120 min, time 60 min
[14] = combination experiment: R-oxybutynin i.v. bolus 1 mg/kg then infusion 0.275 mg/kg/h for four hours at 0 min, nasal TASK1/3 channel blocker only given at 120 min, time 90 min
[15] = combination experiment: R-oxybutynin i.v. bolus 1 mg/kg then infusion 0.275 mg/kg/h for four hours at 0 min, time 120 min = time of nasal application of TASK1/3 channel blocker
[16] = TASK1/TASK3 channel blocker alone, intranasal 0.3 μg, given at 0 min, time 0 min
[17] = TASK1/TASK3 channel blocker alone, intranasal 0.3 μg, given at 0 min, time 10 min
[18] = TASK1/TASK3 channel blocker alone, intranasal 0.3 μg, given at 0 min, time 30 min
[19] = TASK1/TASK3 channel blocker alone, intranasal 0.3 μg, given at 0 min, time 60 min
[20] = TASK1/TASK3 channel blocker alone, intranasal 0.3 μg, given at 0 min, time 90 min

SMILES: CCN(CC)CC#CCOC(=O)C(O)(c1ccccc1)C1CCCCC1 (stereo not shown) [oxybutynin, Oxybutynin]
- Percent pigs without collaps −50 cm H2O, % [1]: 0%
- Percent pigs without collaps −100 cm H2O, % [1]: 0%
- Percent pigs without collaps −150 cm H2O, % [1]: 0%
- time points at which upper airway collapsibility was inhibited at all three negative pressures of −50, −100 and −150 cm head (cm H2O) in all pigs (oxybutynin i.v. bolus 1 mg/kg then i.v. infusion 0,275 mg/kg/h for four hours): at no time point

SMILES: CCN(CC)CC#CCOC(=O)[C@](O)(c1ccccc1)C1CCCCC1 [R-oxybutynin, R-Oxybutynin]
- time points at which upper airway collapsibility was inhibited at all negative pressures of −50, −100 and −150 cm head (cm H2O) in all pigs (R-Oxybutynin i.v. bolus 1 mg/kg then i.v. infusion 0,275 mg/kg/h for four hours): at no time
- upper airway collapsibility at the negative pressure of −50 cm head (cm H2O) (R-Oxybutynin i.v. bolus 1 mg/kg then i.v. infusion 0,275 mg/kg/h for four hours, time point 60 min after intravenous administration): inhibited
- Percent pigs without collaps −50 cm H2O, % [2]: 0%
- Percent pigs without collaps −100 cm H2O, % [2]: 0%
- Percent pigs without collaps −150 cm H2O, % [2]: 0%
- Percent pigs without collaps −50 cm H2O, % [3]: 0%
- Percent pigs without collaps −100 cm H2O, % [3]: 0%
- Percent pigs without collaps −150 cm H2O, % [3]: 0%
- Percent pigs without collaps −50 cm H2O, % [4]: 0%
- Percent pigs without collaps −100 cm H2O, % [4]: 0%
- Percent pigs without collaps −150 cm H2O, % [4]: 0%
- Percent pigs without collaps −50 cm H2O, % [5]: 100%
- Percent pigs without collaps −100 cm H2O, % [5]: 50%
- Percent pigs without collaps −150 cm H2O, % [5]: 0%
- Percent pigs without collaps −50 cm H2O, % [6]: 0%
- Percent pigs without collaps −100 cm H2O, % [6]: 0%
- Percent pigs without collaps −150 cm H2O, % [6]: 0%
- Percent pigs without collaps −50 cm H2O, % [7]: 0%
- Percent pigs without collaps −100 cm H2O, % [7]: 0%
- Percent pigs without collaps −150 cm H2O, % [7]: 0%
- Percent pigs without collaps −50 cm H2O, % [8]: 0%
- Percent pigs without collaps −100 cm H2O, % [8]: 0%
- Percent pigs without collaps −150 cm H2O, % [8]: 0%
- Percent pigs without collaps −50 cm H2O, % [9]: 0%
- Percent pigs without collaps −100 cm H2O, % [9]: 0%
- Percent pigs without collaps −150 cm H2O, % [9]: 0%
- Percent pigs without collaps −50 cm H2O, % [10]: 0%
- Percent pigs without collaps −100 cm H2O, % [10]: 0%
- Percent pigs without collaps −150 cm H2O, % [10]: 0%
- Percent pigs without collaps −50 cm H2O, % [11]: 0%
- Percent pigs without collaps −100 cm H2O, % [11]: 0%
- Percent pigs without collaps −150 cm H2O, % [11]: 0%
- Percent pigs without collaps −50 cm H2O, % [12]: 0%
- Percent pigs without collaps −100 cm H2O, % [12]: 0%
- Percent pigs without collaps −150 cm H2O, % [12]: 0%
- Percent pigs without collaps −50 cm H2O, % [13]: 100%
- Percent pigs without collaps −100 cm H2O, % [13]: 33%
- Percent pigs without collaps −150 cm H2O, % [13]: 0%
- Percent pigs without collaps −50 cm H2O, % [14]: 0%
- Percent pigs without collaps −100 cm H2O, % [14]: 0%
- Percent pigs without collaps −150 cm H2O, % [14]: 0%
- Percent pigs without collaps −50 cm H2O, % [15]: 0%
- Percent pigs without collaps −100 cm H2O, % [15]: 0%
- Percent pigs without collaps −150 cm H2O, % [15]: 0%

SMILES: COc1ccc(Cl)c(C(=O)N2C3CCC2CN(Cc2c(-c4ccc(C(C)C)cc4)nc4ncccn24)C3)n1 [(3-Chloro-6-methoxypyridin-2-yl)(3-{[2-(4-isopropylphenyl)imidazo[1,2-a]pyrimidin-3-yl]methyl}-3,8-diazabicyclo[3.2.1]oct-8-yl)methanone]
- effect of the dose on upper airway collapsibility (TASK1/TASK3 channel blocker alone, 0.3 μg): non effective dose
- Percent pigs without collaps −50 cm H2O, % [16]: 0%
- Percent pigs without collaps −100 cm H2O, % [16]: 0%
- Percent pigs without collaps −150 cm H2O, % [16]: 0%
- Percent pigs without collaps −50 cm H2O, % [17]: 33%
- Percent pigs without collaps −100 cm H2O, % [17]: 33%
- Percent pigs without collaps −150 cm H2O, % [17]: 0%
- Percent pigs without collaps −50 cm H2O, % [18]: 0%
- Percent pigs without collaps −100 cm H2O, % [18]: 0%
- Percent pigs without collaps −150 cm H2O, % [18]: 0%
- Percent pigs without collaps −50 cm H2O, % [19]: 0%
- Percent pigs without collaps −100 cm H2O, % [19]: 0%
- Percent pigs without collaps −150 cm H2O, % [19]: 0%
- Percent pigs without collaps −50 cm H2O, % [20]: 0%
- Percent pigs without collaps −100 cm H2O, % [20]: 0%
- Percent pigs without collaps −150 cm H2O, % [20]: 0%

From patent US20250057846A1, “COMBINATION OF A TASK1/3 CHANNEL BLOCKER WITH A MUSCARINIC RECEPTOR ANTAGONIST FOR THE TREATMENT OF SLEEP APNEA” (BAYER AKTIENGESELLSCHAFT, priority 2021, published 2025)
